The subject of series [1] is normal hematopoietic stem cells. Briefly: Human-mouse xenograft: NOD/SCID engraftment of normal donor cells treated in vitro. The class given is in vivo. The following applies: 7.5 micromolar in vitro for 12-18 hours, bone marrow analysed after 6-8 weeks (CD45). The method, then:
(§1) To assess the effect of parthenolide on primary human stem cell populations, experiments were conducted using transplantation into immune deficient NOD/SCID mice. […] For each experiment, cryopreserved mononuclear cell specimens from normal or AML donors were thawed, and treated in vitro with 7.5 micromolar parthenolide for 12-18 hours. Following culture, 5-10 million cells/animal were injected intravenously into sublethally irradiated (300 Rad) NOD/SCID mice. After 6-8 weeks, animals were sacrificed and bone marrow was analyzed for the presence of human cells using flow cytometry as previously described (Guzman et al., Proc Natl Acad Sci USA 2002; 99: 16220-162253). Human specific antibodies for CD45 were used to assess the level of total engraftment.

The test system of series [2] is primary acute myelogenous leukemia (AML) cells. Briefly: Assay for antileukemic activity (Annexin V/7-AAD apoptosis analysis by flow cytometry). As to conditions: 24 hours of culture. The class given is cell-based. The protocol:
For apoptosis analysis, one million primary acute myelogenous leukemia (AML) cells were washed with cold PBS and resuspended in 200 microliters of Annexin binding buffer (10 mM HEPES/NaOH pH 7.4; 140 mM NaCl; 2.5 mM CaCl2). Annexin V-FITC (Pharmingen) and 0.25 mg/mL 7-AAD (7-aminoactinomycin D, Molecular Probes, CA) were added and the tubes were incubated at room temperature in the dark for 15 minutes. Cells were then diluted with 200 microliters of Annexin binding buffer and analyzed immediately by flow cytometry. Viable cells were identified as failing to label with Annexin V or 7-AAD. Cells beginning to die label with Annexin V, and as membrane integrity is lost, will also label with 7-AAD. […] Data are normalized to untreated control specimens. The data are in Table 1 for aminoparthenolide derivatives and Table 2 for the salts of some aminoparthenolides.
(Flow cytometry measures light scatter and fluorescence of single cells or particles in a stream.)

Series [3] has as its system breast cancer cell line mdl-231. Briefly: Clonogenic assay. The following applies: mdl-231, 2 μm concentration (parthenolide: similar dosage ranges). The class given is cell-based.
Another series relates to NF-κB DNA binding. Briefly: Electrophoretic mobility gel shift assay (EMSA). The class given is cell-based. As to conditions: three hours. The protocol: Each cancer cell line in exponential growth phase was treated with solvent control or various concentrations of parthenolide derivatives dissolved in 100% ethanol for 3 hours prior to harvesting. Cells were harvested and whole cell extracts were prepared as described previously (Nakshatri et al., Mol Cell Biol, 17: 3629-3639, 1997; Sweeney et al., Clin Cancer Res, 10: 5501-5507, 2004). Extracts were incubated with a radiolabelled NFκB probe for 30 minutes at room temperature. The oligonucleotide probe binds to the NFκB DNA binding site in the promoter region of the immunoglobulin gene. Electrophoresis and autoradioragraphy were performed as described previously (Nakshatri et al., 1997) using NFκB and SP-1 probes (Promega, Madison, Wis.). The specificity of parthenolide and derivative inhibition of NFκB DNA binding was verified by the use of the SP-1 probe as a control. Identification of the NFκB subunits binding to DNA and inhibited by DMAPT were identified by gel supershift. Constitutive NF-κB DNA binding activity was determined in the lung cancer cell lines A-549, H-23, H-522, and H-460. All four non-small lung cancer cells were treated with increasing concentrations of DMAPT for three hours, and NF-κB DNA binding was measured by electrophoretic mobility shift assay (EMSA) as described. NF-κB DNA binding activity was highest in A-549 cells, followed by H-23, H-522 and H-460 cells.
Cancer cell lines HT-1376 and UMUC-3 were treated with increasing concentrations of DMAPT for three hours. Whole cell extracts were prepared as described and DNA binding by NF-κB was analyzed by EMSA with NF-κB and OCT-1 (internal control) probes.
The hormone refractory prostate cancer cell line, CWR22Rv1 was treated with increasing concentrations of DMAPT for three hours. Whole cell extracts were prepared as described and DNA binding by NF-κB was analyzed by EMSA with NF-κB and SP-1 (internal control) probes.
In general terms: A gel shift assay detects complexes by their altered migration in electrophoresis.

Series [4] in a line: Preliminary toxicity study in mice. The following applies: oral 40 mg/kg daily, three weeks, mice gained weight and survived. It counts as in vivo. The method, then: (§2) Preliminary in vivo work was conducted to determine the bioavailability and toxicity of this agent in mice.
Series [5] relates to breast cancer cell line 436. Briefly: Clonogenic assay. The class given is cell-based. The following applies: 436 cells, 2 μm concentration (parthenolide: similar dosage ranges).
The test system of series [6] is AML cells (AML stem cell compartment). Briefly: Human-mouse xenograft: NOD/SCID engraftment of AML cells treated in vitro. As to conditions: 7.5 micromolar in vitro for 12-18 hours, bone marrow analysed after 6-8 weeks (CD45). It counts as in vivo, human cells in NOD/SCID mice. The protocol: as §1
(In xenograft studies the graft and the host belong to different species.)

In series [7] the test system is hormone refractory prostate cancer cell line CWR22Rv1. Description: MTS-PMS cellular proliferation assay. The class given is cell-based. As to conditions: at 5 μm, CWR22 MTS-PMS assay. The protocol:
A 96-well U-bottomed plate (Becton Dickinson Labware, Franklin Lakes, N.J.) at a concentration of 5,000 cells per 50 microliters […] of media was incubated in 5% CO2 at 37° C. for 24 hours. Varying compound concentrations in […] of media were added to the media 24 hours later. Colorimetric readings were obtained using the MTS/PMS system and an ELISA plate reader, after 48 hours of exposure to DMAPT. The readings obtained for each concentration tested were from an average of eight wells. Each experiment was expressed as a percentage of the solvent control and completed at least three times with consistent results. The results presented are an average of three experiments. The hormone refractory prostate cancer cell line CWR22Rv1 was treated with increasing concentrations of parthenolide and DMAPT. for three hours Both parthenolide and DMAPT reduced cellular proliferation by 50% at 5 μm in the CWR22 MTS-PMS assay. Cellular proliferation was also measured in the MTS-PMS assay using four lung cancer cell lines treated with parthenolide and derivatives PIPT ((11S,11,13-dihydro,13-(piperidin-1-yl)parthenolide), 4MEPT (11S,11,13-dihydro,13-(4-methylpiperidin-1-yl)parthenolide) and MAPT (11S,11,13-dihydro,13-dimethylaminoparthenolide). Parthenolide and its derivatives inhibited cellular proliferation in a dose dependent manner between 2 and 10 μM with 70% inhibition at 10 μM in A549, 50% in H460, 40% in H-23 and 40% in H522 (FIGS. 2-5).

Series [8] is described as follows: Oral bioavailability in mice: plasma level by LC-MS. It counts as in vivo. The following applies: mouse, 40 mg/kg oral, read-out: plasma level one hour after oral gavage. The protocol: as §2
The subject of series [9] is breast cancer cell line hbl-100. Briefly: Clonogenic assay. As to conditions: hbl-100, 2 μm concentration (parthenolide: similar dosage ranges). The class given is cell-based.

Read-outs that look alike come from different tables or passages of the source.

On to `C/C1=C\CC[C@@]2(C)O[C@@H]2[C@H]2OC(=O)[C@H](CN(C)C)[C@@H]2CC1` [DMAPT, 11S,11,13-Dihydro,13-dimethylaminoparthenolide], for which the “level of engraftment of treated normal cells in NOD/SCID mice” value in series [1] is given as “no significant effects”. Also, the Antileukemic activity is recorded as 5 μM, 31% in series [2] (5 μM); 10 μM, 90% in [2] (10 μM, normalized to untreated control); 20 μM, 95% in series [2] (20 μM). Besides, the inhibition of proliferation result in series [3], in series [5] and in series [9] was “almost complete inhibition” in each case. Also, the “NF-κB DNA binding” value is “substantial decreases” in the series with NF-κB DNA binding (CWR22Rv1, 10 μM); “decreased NF-κB DNA binding in a dose-dependent manner” with NF-κB DNA binding (HT-1376 and UMUC-3 cell lines, increasing concentrations). For the same compound, the “NF-κB DNA binding activity” value with NF-κB DNA binding (lung cancer cell lines A-549, H-23, H-522, H-460, between 2 and 10 micromolar) was “substantially decreased”. The “toxicity on daily oral treatment” value in series [4] was “no overt toxicities”. The “level of engraftment of treated AML cells in NOD/SCID mice” value in series [6] was “strong reduction”. The “reduction of cellular proliferation” value in series [7] amounted to 50%. For the same compound, the concentration at 1 h is around 2500 ng/mL in [8] (LC-MS, average of 5 mice) and 8 µM in [8] (conversion of the ng/mL value).

(Values after US9045490B2, “Use of parthenolide derivatives as antileukemic and cytotoxic agents” (University of Kentucky, priority 2003, dated 2015).)
